Results: US8436159B2, “Glyphosate resistant class I 5-endolpyruvylshikimate-3-phosphate synthase (EPSPS)” (Monsanto Technology LLC, priority 2003, dated 2013)

Target: T1, maize (Zea mays) class I EPSPS variant TIPG (T102I, P106G), pMON42480 (Zea mays, UniProt O24566, P106G/T102I)
T1 construct: pMON42480
T1 sequence (O24566 1-444 T102I/P106G): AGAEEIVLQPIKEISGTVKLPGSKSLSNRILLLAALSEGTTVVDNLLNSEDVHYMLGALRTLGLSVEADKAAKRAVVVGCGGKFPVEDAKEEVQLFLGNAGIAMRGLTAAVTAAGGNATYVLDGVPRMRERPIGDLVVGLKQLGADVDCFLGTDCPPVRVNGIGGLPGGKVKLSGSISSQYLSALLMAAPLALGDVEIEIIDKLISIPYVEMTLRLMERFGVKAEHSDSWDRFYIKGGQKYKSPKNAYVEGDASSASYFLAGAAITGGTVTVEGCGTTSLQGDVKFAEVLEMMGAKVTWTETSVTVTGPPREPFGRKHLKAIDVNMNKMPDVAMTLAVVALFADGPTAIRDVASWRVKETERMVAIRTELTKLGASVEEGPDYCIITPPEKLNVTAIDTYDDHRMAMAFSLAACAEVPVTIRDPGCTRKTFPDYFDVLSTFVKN
Experiment: EPSPS steady-state kinetics, TIPG variant
Assay type: biochemical
Description: The double variants of the present invention were made using pMON58452 (FIG. 5) as the template. This pMON58452 EPSPS gene template contains the maize EPSPS double variant T102I, P106T (TIPT) that was constructed by mutagenesis of pMON70467 with the mutagenesis primers mEmut-9-U and mEmut-10-L. The various mutagenesis primer sequences were designed and then were synthesized by Invitrogen Corp., Custom Primers and used in combination in a PCR to create the variant EPSPS coding sequences. The PCR was set up in a 50 μl reaction in the following manner: dH2O 38 μl; 2 mM dNTP 1 μL; 10× buffer 5 μL; pMON58452 1 μL (10 ng); primer-U 2 μL; primer-L 2 μL; pfu Turbo enzyme 1 μL. PCR was carried out on a MJ Research PTC-200 thermal cycler using the following program: Step 1—94° C. for 30 seconds; Step 2—94° C. for 30 seconds; Step 3—55° C. for 1 minute; Step 4—68° C. for 14 minute; Step 5—go to step 2, 16 times; Step 6—End. At the end of the PCR, 1 μl of the restriction enzyme DpnI was added to each 50 μl of PCR reaction and the mixture was incubated at 37° C. for 1 hour. […]

Q: `O=C(O)CNCP(=O)(O)O` [glyphosate, N-phosphonomethylglycine] was tested. Which Ki did it give?
A: 38.6 µM
